Here are results for one compound from paper PMC8289286, “In Silico, In Vitro, and In Vivo Evaluation of Precipitation Inhibitors in Supersaturated Lipid-Based Formulations of Venetoclax” (Molecular Pharmaceutics, 2021).

In brackets after ≈: the same amount, converted by molar mass. Read-outs that look alike come from different tables or passages of the source.

A short description of series [1]: Venetoclax solubility in FaSSIF and FaSSIF with dissolved PI. Type of series: physicochemical. Particulars: FaSSIF without PI, reference of the PI test. How it is done: Additionally, the solubility of venetoclax was determined in FaSSIF with dissolved PI. […] 250 μL of samples were taken at 3, 6, and 24 h and filtered through a 0.2 μm syringe filter (Whatman Spartan 13/0.2), diluted with acetonitrile (containing 0.5% (v/v) TFA), and analyzed by HPLC as described above.

On the set-up of series [2]: method as in PMID 28993217. Conditions: cited from earlier work.
For series [3] the following is noted: cited from earlier work.
The conditions of series [4]: cited from earlier work. The source holds these as a separate data set.
A short description of series [5]: Biorelevant solubility in FaSSIF and FeSSIF. It is filed as physicochemical. As for the experimental part: FaSSIF and fed state simulated intestinal fluid (FeSSIF) was prepared according to the instructions by biorelevant.com. FeSSIF was used directly, whereas FaSSIF was left at room temperature for 2 h prior to usage. Excess venetoclax was added to 2 mL of biorelevant media and placed in a water bath shaker at 200 shakes/min (GLS400, Grant Instruments, UK) and 37 °C. Samples were taken after 3, 6, and 24 h and centrifuged at 21,380g and 37 °C for 15 min (Mikro 200 R, Andreas Hettich GmbH & Co. KG, Germany). The supernatant was transferred to a new sample tube and centrifuged again under identical conditions. Subsequently, the supernatant was diluted with the mobile phase before analysis by HPLC.
The samples were analyzed using an Agilent 1200 series HPLC system (Agilent Technology Inc., US) that comprised a binary pump, degasser, autosampler, and variable wavelength detector. Data were analyzed using the software EZChrom Elite version 3.2. Venetoclax was separated from the sample matrix with a Zorbax Eclipse Plus-C18 column (5 μm, 4.6 mm × 150 mm) including a Zorbax Eclipse Plus-C18 guard column (5 μm, 4.6 mm × 12.5 mm) at 40 °C. The mobile phase consisted of (a) acetonitrile with 0.5% trifluoroacetic acid (TFA) and (b) water with 0.5% TFA at a ratio of 53:47 (a/b v/v) and was used at a flow rate of 1 mL/min. The injection volume was 20 μL and the detection wavelength was set to 316 nm. The limit of detection was 20 ng/mL and the limit of quantification (LOQ) was 65 ng/mL determined using the standard error of the y-intercept according to the International Council for Harmonization (ICH) Q2 guidelines.[34]

Usually solubility stands for how much of the substance goes into solution per volume. A low value points to a poorly soluble substance. By log P is commonly meant the decadic logarithm of the partition coefficient of the neutral form, usually between octanol and water. `CC1(C)CCC(CN2CCN(c3ccc(C(=O)NS(=O)(=O)c4ccc(NCC5CCOCC5)c([N+](=O)[O-])c4)c(Oc4cnc5[nH]ccc5c4)c3)CC2)=C(c2ccc(Cl)cc2)C1` [venetoclax]: the solubility is 5.2 ± 0.4 µg/mL (≈ 5.99 µM) in series [1] and 6.8 ± 1.8 µg/mL (≈ 7.83 µM) in series [5] (FaSSIF, 37 °C, n = 3). Also, the “amorphous solubility in FaSSIF” value was 20.7 ± 0.5 µg/mL in series [2] (pH 5.3) and 33.7 ± 13.5 µg/mL in series [2] (pH 6.9). The “amorphous solubility in FeSSIF” value in series [2] (FeSSIF, pH 5.3) was 26.4 ± 0.2 µg/mL; in series [2] (FeSSIF, pH 6.9) it was 54.6 ± 2.0 µg/mL. For the same compound, the “reported amorphous solubility in FeSSIF” value in series [2] (FeSSIF) was 26.4 to 54.6 µg/mL. Besides, in series [3], the “previously reported venetoclax bioavailability in fasted pigs” value is 17.3 ± 5.5%. The BCS classification result in series [4] (based on low aqueous solubility and permeability) was “BCS class IV”. In addition, the lipophilicity (log P) in series [4] is 5.5. The “share of a 100 mg dose dissolved in 250 mL gastrointestinal fluid at FaSSIF solubility” value in series [5] (FaSSIF, 100 mg dose in 250 mL) was determined as 1.7%. Besides, the “solubility increase in the fed state (FeSSIF) over FaSSIF” value in series [5] (FeSSIF vs FaSSIF, 37 °C) amounted to 3.9 fold. Moreover, in series [5] (FeSSIF, 100 mg dose), the “share of a 100 mg dose dissolved at FeSSIF solubility” value stood at 6.7%.
